Test results as given in PubChem BioAssay (NCI).
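A five-concentration, 48-hour dose response in 96-well plates underlies each endpoint, interpolated linearly between surrounding concentrations. TGI marks complete inhibition of growth.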

How the values were obtained:
Assay in all cases: growth of human tumour cells (NCI), 48 h
HT29 colon = tested on: HT29 colon
HOP-92 NSCLC = tested on: HOP-92 NSCLC
LOX IMVI melanoma = tested on: LOX IMVI melanoma
MALME-3M melanoma = tested on: MALME-3M melanoma
T-47D breast = tested on: T-47D breast
OVCAR-8 ovarian = tested on: OVCAR-8 ovarian
HCT-116 colon = tested on: HCT-116 colon
UO-31 renal = tested on: UO-31 renal
SF-295 CNS = tested on: SF-295 CNS
NCI-H226 lung = tested on: NCI-H226 lung
SK-OV-3 ovarian = tested on: SK-OV-3 ovarian
HOP-62 NSCLC = tested on: HOP-62 NSCLC
SF-268 CNS = tested on: SF-268 CNS
MDA-N = tested on: MDA-N

SMILES	TGI (HT29 colon) [µM]	TGI (HOP-92 NSCLC) [µM]	TGI (LOX IMVI melanoma) [µM]	TGI (MALME-3M melanoma) [µM]	TGI (T-47D breast) [µM]	TGI (OVCAR-8 ovarian) [µM]	TGI (HCT-116 colon) [µM]	TGI (UO-31 renal) [µM]	TGI (SF-295 CNS) [µM]	TGI (NCI-H226 lung) [µM]	TGI (SK-OV-3 ovarian) [µM]	TGI (HOP-62 NSCLC) [µM]	TGI (SF-268 CNS) [µM]	TGI (MDA-N) [µM]
COC(=O)[C@H](C)N(C)C(=O)[C@H](C)N1[C@@H](c2ccccc2)COC1(C)C	> 100	> 100	> 100	> 100	> 100	> 100	> 100	> 100	> 100	> 100	> 100	> 100	> 100	> 100
Cc1cnc2[nH]c(-c3ccc(Cl)cc3)cc(=O)c2c1	> 39.1	> 100	> 100	> 100	> 100	> 100	> 29.3	> 60.5	23	> 100	> 100	> 100	> 100	3.61
C1=Cc2cccc3occ(c23)C=C1	> 100	> 100	33.8	> 100	> 100	> 100	> 100	> 100	> 100	> 100	> 100	> 100	> 100	> 100
N[C@H]1CCN(c2c(F)cc3c(=O)c(C(=O)O)cn4c3c2Oc2c-4ccc3c2ccc2ccccc23)C1	> 100	> 49.6	22.9	> 100	> 100	> 100	> 35.3	> 71.3	> 100	> 100	–	> 100	–	> 53.6
C[C@H]1S[C@H](c2c(F)cccc2F)n2c1nc1ccccc12	> 100	–	–	> 100	> 100	> 100	> 100	> 100	> 100	> 100	> 100	> 100	> 100	> 100
CC(=O)OC(C)c1cc2c(s1)C(=O)c1ccsc1C2=O (centres undefined)	–	1.74	0.119	0.246	1.79	0.68	0.769	0.354	0.233	3.79	3.7	0.281	0.812	0.0544
COc1cc(C(=O)OC2CC34CCNC35CC(OC5(OC)C2O)c2cc3c(cc24)OCO3)ccc1O (centres undefined)	> 100	> 100	> 100	> 100	> 100	> 100	> 100	–	> 100	> 100	> 100	> 100	> 100	> 100
N#Cc1c(N)c2c(c(-c3ccccc3)c1-c1ccccc1)C(=O)N(O)C2=O	–	> 100	> 100	> 100	73.9	> 100	82.4	> 100	> 100	62.8	–	–	> 100	> 100
CCOc1nc2sc3c(c2c(=O)n1CCSSCCn1c(OCC)nc2sc4c(c2c1=O)CCCC4)CCCC3	> 100	–	> 100	> 100	> 100	> 100	> 100	> 100	> 100	> 100	> 100	> 100	> 100	> 100
Cc1ccc(S(=O)(=O)NNC(=O)Nc2ccc([N+](=O)[O-])cc2)cc1	> 100	> 100	> 100	> 100	28.9	42.3	> 100	> 100	> 100	> 100	–	95.4	> 100	> 100
COc1cc(-c2ccccc2)cn2c1nc1ccccc12	35.5	32	52.4	41.9	83.6	64.4	39.5	32.4	–	39.7	59.7	43.6	79.4	37.3
COc1cc(OC)nc(-n2c(N)c(C(=O)O)c3ccc([N+](=O)[O-])cc3c2=O)n1	> 100	–	> 100	> 100	> 100	> 100	> 100	> 100	> 100	> 100	> 100	> 100	> 100	> 100
CCN1C/C(=C\c2ccc(Cl)cc2)c2[nH]c(=O)c(C#N)c(-c3ccc(Cl)cc3)c2C1	> 100	> 100	> 100	> 100	> 100	–	> 100	–	–	> 100	> 100	> 100	> 100	> 100
CC12CCC(=O)[C@@]1(C)CCCC2O (some centres undefined)	> 100	–	> 100	> 100	> 100	> 100	> 100	> 100	> 100	> 100	> 100	> 100	> 100	> 100
CC(=O)c1cccc(Nc2nc3ccccc3c3[nH]c4ccccc4c23)c1	17	22.2	–	13.2	33.5	74.9	> 100	> 100	15.9	–	43.7	42	17.3	> 100
COc1cc2c(cc1O)C(=O)O[C@@H]1CC=C3CCN(C)[C@H]3[C@H]21	> 25	–	–	> 25	> 25	> 25	> 25	> 25	> 25	> 25	> 25	> 25	> 25	> 25
C=CCN1C(=O)CS/C1=N\NC(=O)CSc1nc2ccccc2c(=O)n1CC	> 100	–	> 100	> 100	> 100	> 100	> 100	> 100	> 100	> 100	> 100	> 100	> 100	> 100
CCOC(=O)c1nc2cc(F)cc(F)c2[nH]c1=O	> 100	> 100	> 100	–	> 100	> 100	> 100	> 100	> 100	> 100	> 100	> 100	> 100	> 100
